Experimental data from US8343943B2, “Cancer sensitizer comprising glucosamine, glucosamine derivatives or salts thereof” (National Cancer Center, priority 2006, dated 2013).

Key:
[1] = test system: MDA 468 cells; assay: MTT cytotoxicity assay, anticancer agent-sensitive line; assay type: cell-based; conditions: MDA 468, sensitive to anticancer agent
Description: (§1) An MTT assay was conducted through […] analysis on the reduction of yellow tetrazolium salt into purple formazan in the mitochondria of viable cells. Cells were seeded at a population of 1×10^5 cells/well in 24-well plates. After incubation for 24 hrs, the cells were exposed to doxorubicin. This anticancer agent was administered at a dose of 90 μM to MCF 7/DOX and 5 μM to MDA 231. A control was not treated with doxorubicin. On the very day of analysis, the culture medium in each well was substituted with a fresh medium containing MTT (3-(4,5-dimethylthiazol-2-yl)-2,5-diphenyltetrazolium) (Sigma) at a concentration of 0.5 mg per ml, followed by incubation therein for an additional 4 hrs. After the removal of the medium, 500 μl of DMSO was added to each well and the formazan crystals were dissolved using an orbital shaker. Cell viability was represented as a percentage of a test group to the control. These experiments were done in triplicate and repeated at least three times. For each experiment, the mean of three independent experiments and the standard deviations are given.
(§2) As measured through an MTT assay, almost all MCF 7 and MDA 468, both sensitive to anticancer agent, died, whereas apoptosis took place in about 50% of the anticancer agent-resistant cell lines.

[2] = test system: MCF 7 cells; assay: as above; assay type: cell-based; conditions: MCF 7, sensitive to anticancer agent
Description: as §1, §2

[3] = test system: MDA 231 cells (doxorubicin resistant); assay: MTT cytotoxicity assay, doxorubicin with or without glucosamine; assay type: cell-based, human
Description: (§3) Human breast cancer cell line MDA-231 (doxorubicin resistant) was purchased from ATCC. MCF-7/DOX (doxorubicin resistant) was obtained from Dr. Kenneth H. Cowan (University of Nebraska Medical Center, 986805 Nebraska Medical Center, Omaha, Nebr. 68198-6805, USA). These cell lines were maintained in media supplemented with 10% fetal bovine serum (Gibco BRL), 1 mM sodium pyruvate (Gibco BRL), and 100 U/ml penicillin-streptomycin (Gibco BRL) at 37° C. in a humid 5% CO2 atmosphere and subcultured every two or three days.
as §1
(§4) MTT assay was conducted to examine whether glucosamine increases the sensitivity of breast cancer cells to anticancer agents. MCF 7/DOX and MDA 231 cell lines, both resistant to anticancer agents, were treated with doxorubicin and glucosamine (1.0 to 10 mM) for 24 hrs. Controls were not treated with glucosamine, while doxorubicin was administered at concentrations of 5 μM to MDA-MB 231, and at a concentration of 90 μM to MCF-7/DOX.

[4] = test system: MCF 7/DOX cells (doxorubicin resistant); assay: as above; assay type: cell-based, human
Description: as §3, §1, §4

[5] = test system: I-κBα in MCF7/DOX cells; assay: Western blotting against I-κBα, cytoplasm fractions; assay type: cell-based, human; conditions: MCF-7/DOX; cultured 1 hr; cytoplasm fraction
Description: (§5) Glucosamine was analyzed for its effect on I-κBα degradation. For this, MCF7/DOX and MDA231 cells were cultured for 1 hr and cytoplasm fractions thereof were harvested for Western blotting against I-κBα. Western blotting results are shown in the upper panel of FIG. 3B. Western blotting was quantified using a densitometer, and the results are depicted in the lower panel of FIG. 3B. For each value, the mean of three independent experiments and standard deviations are given.

[6] = test system: I-κBα in MDA231 cells; assay: as above; assay type: cell-based, human; conditions: MDA-231; cultured 1 hr; cytoplasm fraction
Description: as §5

[7] = test system: NF-κB activity in MDA231 cells; assay: pNF-κB-SEAP reporter assay; assay type: cell-based, human; conditions: MDA-231; glucosamine 5 mM; 24 hrs
Description: (§6) MCF7/DOX and MDA231 cell lines were cultured in media supplemented with 10% fetal bovine serum (Gibco BRL), 1 mM sodium pyruvate (Gibco BRL) and 100 U/ml penicillin-streptomycin (Gibco BRL) at 37° C. in a humid 5% CO2 atmosphere. A pNF-κB-SEAP vector was transfected into the cells. 24 hrs after transfection, the cells were cultured in the presence of or absence of glucosamine (represented by GM, 5 mM) for 24 hrs. The cell culture was subjected to an SEAP assay, and the cells, after being harvested, were subjected to a β-galactosidase assay. The values obtained for the SEAP assay were corrected for transfection efficiency with a pGAL plasmid (1 μg). β-Galactosidase activity was measured to correct the SEAP activity. The SEAP assay was conducted according to the procedure set forth by the manufacturer (BD Biosciences Clontech, Co.). […] These experiments were done in triplicate and repeated at least three times. The values of each experiment are the mean of three independent experiments and the standard deviations.

[8] = test system: NF-κB activity in MCF7/DOX cells; assay: pNF-κB-SEAP reporter assay; assay type: cell-based, human; conditions: MCF-7/DOX; glucosamine 5 mM; 24 hrs
Description: as §6

Row | SMILES | cell death [1] | cell death [2] | apoptosis of cells ([3]; MDA 231, doxorubicin 5 μM alone) | apoptosis of cells ([4]; MCF 7/DOX, doxorubicin 90 μM alone) | I-κBα level [5] | I-κBα level [6] | NF-κB activity [7] | NF-κB activity [8] | sensitivity to doxorubicin when treated with glucosamine vs not treated ([3]; MDA 231, doxorubicin 5 μM, glucosamine 1.0 to 10 mM, 24 hrs) | apoptosis frequency, anticancer agent in combination with glucosamine vs alone ([3]; chemoresistant cells, FIG. 2 (MDA231)) | sensitivity to doxorubicin when treated with glucosamine vs not treated ([4]; MCF 7/DOX, doxorubicin 90 μM, glucosamine 1.0 to 10 mM, 24 hrs) | apoptosis frequency, anticancer agent in combination with glucosamine vs alone ([4]; chemoresistant cells, FIG. 1 (MCF/DOX))
1 | COc1cccc2c1C(=O)c1c(O)c3c(c(O)c1C2=O)C[C@@](O)(C(=O)CO)C[C@@H]3O[C@H]1C[C@H](N)[C@H](O)[C@H](C)O1 [doxorubicin, reference compound] | almost all | almost all | about 50% | about 50% |  |  |  |  |  |  |  | 
2 | N[C@H]1C(O)O[C@H](CO)[C@@H](O)[C@@H]1O (stereo partly drawn) [glucosamine] |  |  |  |  | increase | increase | decrease | decrease | twice as (two times more=three times as) sensitive | twice as frequently | twice as (two times more=three times as) sensitive | twice as frequently
